Data on three molecules can be found in article PMC11876601 (Molecular Systems Biology, 2025).

Several values for one entry are separate records, joined by “and”; a condition that tells them apart may be missing. Identical values can stand only once. Like-named read-outs stand apart in the source and are kept apart here.

One assay has as its system TANK. Set-up: method as in Klaeger et al. (2017). The settings on record: lysate 4 cell line mix (Colo205, K-562, MV-4-11, and SK-N-BE(2)), Kinobeads y, ref Klaeger et al. (2017); cited from earlier work.
The subject of another assay is NTRK1. More on the design: method as in Klaeger et al. (2017). The conditions noted are these: lysate 4 cell line mix (Colo205, K-562, MV-4-11, and SK-N-BE(2)), Kinobeads y, ref Klaeger et al. (2017); cited from earlier work.
The test system of another assay is SIK3. Set-up: method as in Klaeger et al. (2017). The settings on record: lysate 4 cell line mix (Colo205, K-562, MV-4-11, and SK-N-BE(2)), Kinobeads y, ref Klaeger et al. (2017); cited from earlier work.
The subject of the next assay is PLK1. Set-up: method as in Reinecke et al. (2023). The settings on record: PLK1, 5 cell line mix lysate, Kinobeads ε, ref Reinecke et al. (2023), cited from earlier work.
A further assay relates to BUB1. More on the design: method as in Reinecke et al. (2023). The conditions noted are these: BUB1, 5 cell line mix lysate, Kinobeads ε, ref Reinecke et al. (2023), cited from earlier work.
Another assay has as its target AXL. More on the design: method as in Reinecke et al. (2023). The conditions noted are these: 5 cell line mix lysate, Kinobeads ε, ref Reinecke et al. (2023), cited from earlier work.
In a further assay the test system is PDO B250. Put plainly: PDO viability assay (CellTiter-Glo, 72 h). The settings on record: for pEC50: single replicates R1-R8. The class given is cell-based, human. Here is the method:
(§1) Primary patient-derived PDAC organoid (PDO) experiments were performed in the laboratories of Prof. Maximilian Reichert (University Hospital of the TU Munich, Germany, PDO set 1: B250, B535, B678) and Prof. Jens T. Siveke (University Hospital Essen, Germany; PDO set 2: UME008, UME012, UME051, UME053, UME060, UME061). PDOs were generated from surgical resection, EUS-guided fine needle biopsy (EUS-FNB), or ascites (Appendix Table S2). Surgical specimens were first minced with a sterile scalpel and subsequently washed with Anti-Anti solution and washing medium (PDO set 1), or vice versa (PDO set 2; Appendix Table S3). Biopsy samples were directly washed with an Anti-Anti solution and washing medium. Samples were digested using 1 ml of digestion medium at 37 °C while shaking, and the enzymatic reaction was stopped by adding 15 ml of washing medium (Appendix Table S3). If samples of PDO set 1 were blood-stained, tissue pellets were first incubated with ACK lysing buffer/red blood cells lysis buffer (Thermo Fisher Scientific) for 5 min and then digested using TrypLE (Thermo Fisher Scientific). The reversed procedure was applied for blood-stained samples of PDO set 2. For PDO generation from ascites, the material was first spun down at 500 × g for 5 min. Then, washing medium was added and the suspension was centrifuged at 300 × g for 5 min. If the pellet was blood-stained, ACK lysis buffer was added and incubated at room temperature.
(§2) For viability assays in PDOs, confluent organoids were removed from medium, and Matrigel was dissolved by adding 200 μl (PDO set 1) or 2 ml (PDO set 2) of Cell Recovery Solution (Corning), and additionally 500 μl of DPBS (PDO set 1 only). Samples were transferred into a falcon and incubated on ice for 30 min, followed by centrifugation at 300 × g at 4 °C for 5 min (after adding 10 ml washing medium for PDO set 2). Subsequently, TrypLE Express Enzyme (Thermo Fisher) was added to cell pellets and incubated for 2 × 5 min at 37 °C. The enzymatic reaction was quenched by DPBS (PDO set 1) or washing medium (PDO set 2), and samples were washed by centrifugation at 300 × g at 4 °C for 5 min. Five hundred cells/well were seeded in 384-well plates (Corning) in 50 μl of PDO medium containing 10% Matrigel. To allow PDO generation, cells were incubated for 4 days at 37 °C and 5% CO2. […] Experiments were pipetted manually (PDO set 1) or automatically using a TECAN D300e Digital Dispenser (HP; PDO set 2). Treatments were performed in eight replicates, except for PDO PPES045 (quadruplicates). After 72 h, cell viability was measured using the CellTiter-Glo Luminescent Cell Viability Assay (Promega) diluted 1:5 in the final volume of the well. After 20 min of incubation at room temperature under gentle shaking, the acquisition was performed in the microplate reader VantaSTAR (BMG Labtech) using 3000 gain for the amplification measurement of a detected signal (PDO set 1) or the Spark Multimode microplate reader (TECAN) at 800 ms integration time (PDO set 2).
Background: In ATP-based viability assays light output follows the ATP content of the culture.

The next assay deals with PDO B678. Put plainly: PDO viability assay (CellTiter-Glo, 72 h). Type of assay: cell-based, human. As to the method: as §1, §2
A further assay relates to PDO UME060. Put plainly: PDO viability assay (CellTiter-Glo, 72 h). Type of assay: cell-based, human. As to the method:
as §1, §2

For a further assay, the system named is PDO UME008. Nature of the assay: PDO viability assay (CellTiter-Glo, 72 h). Type of assay: cell-based, human. As to the method:
as §1, §2

Where [1] appears, read: Experiment GEM+ATRi_dose1 (ATRi = Elimusertib), single replicates R1-R8, read-out: EC50.
The mark [2] stands for this setting: Homo sapiens, Experiment GEM (GEM alone), mean of replicates, read-out: EC50 mean.
The mark [3] stands for this setting: Homo sapiens, Experiment GEM+ATRi_dose1 (ATRi = Elimusertib), mean of replicates, read-out: EC50 mean.
[4] abbreviates: Homo sapiens, Experiment GEM+ATRi_dose2 (ATRi = Elimusertib), mean of replicates, read-out: EC50 mean.
Where [5] appears, read: Homo sapiens, GEM alone, read-out: EC50 mean.
The mark [6] stands for this setting: PDO UME008, GEM + Elimusertib (ATRi) dose1, per replicate.
The mark [7] stands for this setting: PDO UME008, GEM + Elimusertib (ATRi) dose2, per replicate.
[8] abbreviates: PDO UME008, GEM + Elimusertib (ATRi) dose3, per replicate.
The mark [9] stands for this setting: PDO UME008, GEM alone, per replicate.
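Wherever Curve top is given: fraction of plate-wise median vehicle signal.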

In the case of `C[C@]12O[C@H](C[C@]1(O)CO)n1c3ccccc3c3c4c(c5c6ccccc6n2c5c31)CNC4=O` [Lestaurtinib], the EC50 with TANK was 1340 nM; in the assay with NTRK1 it was 795 nM; in the assay with SIK3 it was 1040 nM.

For the molecule `COc1cc(N2CCC(N3CCN(C)CC3)CC2)ccc1Nc1ncc(Cl)c(Nc2ccccc2P(C)(C)=O)n1` [Brigatinib], the figures for the EC50 with PLK1, in the assay with BUB1 and in the assay on AXL were 1100 nM, 6990 nM and 635 nM, respectively. Besides, the values for the pKDapp on PLK1, on BUB1 and on AXL were 5.99, 5.16 and 6.20, respectively. The Kd was 1010 nM at PLK1 (read-out: KDapp), 6990 nM at BUB1 (read-out: KDapp) and 635 nM on AXL (read-out: KDapp).

On to `Nc1ccn([C@@H]2O[C@H](CO)[C@@H](O)C2(F)F)c(=O)n1` [GEM, Gemcitabine], for which the pEC50 – broadly, −log10 of the EC50, conventionally taken in molar units – was 6.73 and 6.37 and 6.71 and 6.62 and 6.75 and 6.40 and 6.58 and 6.41 in the assay on PDO B250 (Experiment GEM (GEM alone)); 6.29 and 6.41 and 6.85 and 6.58 and 6.87 and 7.26 and 6.73 and 6.74 with PDO B250 (Experiment GEM+ATRi_dose1 (ATRi = Elimusertib)); 6.49 and 6.68 and 7.12 and 6.42 and 6.56 and 6.26 with PDO B678 (Experiment GEM+ATRi_dose1 (ATRi = Elimusertib), single replicates R1-R8); 7.50 and 7.52 and 7.65 and 7.83 and 7.66 and 7.40 and 7.75 and 8.04 in the assay on PDO UME060 (PDO UME060, experiment GEM (GEM alone), single replicates); 8.33 and 8.31 and 8.10 and 8.30 and 8.17 in the assay on PDO UME008 (setting [6]); 8.24 and 8.33 and 8.77 with PDO UME008 (setting [7]). The pEC50 is 8.27 and 8.67 and 8.63 and 8.23 and 8.28 in the assay on PDO UME008 (setting [8]); 7.56 and 8.15 and 7.44 and 7.69 and 7.32 and 8.00 in the assay with PDO UME008 (setting [9]). In addition, the EC50 is 185 nM and 427 nM and 194 nM and 239 nM and 177 nM and 398 nM and 263 nM and 393 nM in the assay on PDO B250 (Experiment GEM (GEM alone), single replicates R1-R8, read-out: EC50); 516 nM and 389 nM and 140 nM and 262 nM and 135 nM and 54.9 nM and 185 nM and 183 nM with PDO B250 (setting [1]); 284 nM with PDO B250 (setting [2]); 233 nM with PDO B250 (setting [3]); 265 nM with PDO B250 (setting [4]); 284 nM with PDO B250 (setting [5]). For the same molecule, the EC50 in the assay on PDO B678 (setting [1]) is 321 nM and 209 nM and 76.6 nM and 382 nM and 273 nM and 548 nM and 379 nM; in the assay with PDO B678 (setting [2]), 247 nM; in the assay on PDO B678 (setting [3]), 313 nM; with PDO B678 (setting [4]), 156 nM; in the assay with PDO B678 (Homo sapiens, Experiment GEM+ATRi_dose3 (ATRi = Elimusertib), mean of replicates, read-out: EC50 mean), 209 nM; in the assay with PDO B678 (setting [5]), 247 nM. Further, the EC50 in the assay with PDO UME060 (Homo sapiens, PDO UME060, GEM alone, read-out: EC50 mean) is 23.4 nM; in the assay on PDO UME060 (Homo sapiens, PDO UME060, experiment GEM (GEM alone), mean of replicates, read-out: EC50 mean), 23.4 nM; with PDO UME060 (PDO UME060, PDO set 2, experiment GEM (GEM alone), single replicates, read-out: EC50), 31.8 nM and 30.4 nM and 22.2 nM and 14.8 nM and 21.8 nM and 39.5 nM and 17.7 nM and 9.22 nM; in the assay with PDO UME008 (Homo sapiens, PDO UME008, GEM + Elimusertib (ATRi) dose1, mean of replicates, read-out: EC50 mean) it was 5.72 nM; in the assay with PDO UME008 (Homo sapiens, PDO UME008, GEM + Elimusertib (ATRi) dose1, per replicate, read-out: EC50), 5.99 nM; in the assay on PDO UME008 (Homo sapiens, PDO UME008, GEM + Elimusertib (ATRi) dose1, per replicate, read-out: pEC50 (converted)), 6.03 nM. For the same molecule, the EC50 was 26.4 nM with PDO UME008 (Homo sapiens, PDO UME008, GEM alone, mean of replicates, read-out: EC50 mean); 26.4 nM in the assay with PDO UME008 (Homo sapiens, PDO UME008, GEM alone, read-out: EC50 mean); 26.4 nM in the assay on PDO UME008 (Homo sapiens, SET-2, PDO UME008 (PDO set 2), Experiment GEM (GEM alone), mean of replicates, read-out: EC50 mean); 35.3 nM with PDO UME008 (Homo sapiens, SET-2, PDO UME008 (PDO set 2), Experiment GEM (GEM alone), single replicates, read-out: EC50); 35.5 nM in the assay with PDO UME008 (Homo sapiens, SET-2, PDO UME008 (PDO set 2), Experiment GEM (GEM alone), single replicates, read-out: pEC50 (converted)); 5.72 nM with PDO UME008 (Homo sapiens, SET-2, PDO UME008 (PDO set 2), Experiment GEM+ATRi_dose1 (ATRi = Elimusertib), mean of replicates, read-out: EC50 mean). Moreover, the EC50 in the assay on PDO UME008 (Homo sapiens, SET-2, PDO UME008 (PDO set 2), Experiment GEM+ATRi_dose1 (ATRi = Elimusertib), single replicates, read-out: EC50) is 4.47 nM; in the assay with PDO UME008 (Homo sapiens, SET-2, PDO UME008 (PDO set 2), Experiment GEM+ATRi_dose1 (ATRi = Elimusertib), single replicates, read-out: pEC50 (converted)), 4.47 nM; in the assay with PDO UME008 (PDO UME008, GEM + Elimusertib (ATRi) dose1, per replicate, read-out: EC50) it was 4.68 nM and 4.87 nM and 6.08 nM and 7.93 nM and 4.97 nM and 6.77 nM; with PDO UME008 (PDO UME008, GEM + Elimusertib (ATRi) dose2, per replicate, read-out: EC50), 5.77 nM and 3.11 nM and 4.73 nM and 1.69 nM; in the assay on PDO UME008 (PDO UME008, GEM + Elimusertib (ATRi) dose3, per replicate, read-out: EC50), 2.48 nM and 5.32 nM and 2.13 nM and 3.3 nM and 2.33 nM and 5.9 nM and 5.31 nM; with PDO UME008 (PDO UME008, GEM alone, per replicate, read-out: EC50), 27.4 nM and 7.09 nM and 36.6 nM and 20.4 nM and 48 nM and 10.1 nM. For the same molecule, the Curve top was 1.00 and 0.88 and 1.04 and 0.95 and 1.07 and 0.83 and 1.30 with PDO UME060 (PDO UME060, experiment GEM (GEM alone), curve fit); 0.83 and 1.39 and 1.43 and 1.58 with PDO UME008 (setting [6]); 1.01 and 1.56 and 1.34 and 1.60 and 1.61 and 1.89 in the assay on PDO UME008 (setting [7]); 1.25 and 0.88 and 1.26 in the assay on PDO UME008 (setting [8]); 0.95 and 1.46 with PDO UME008 (setting [9]). In addition, the Curve slope in the assay on PDO UME008 (setting [6]) was 0.15 and 0.09 and 0.06 and 0.14 and 0.13 and 0.10 and 0.08; in the assay on PDO UME008 (setting [7]), 0.07 and 0.08 and 0.13 and 0.0742 and 0.12; in the assay on PDO UME008 (setting [8]), 0.10 and 0.07 and 0.08 and 0.0752 and 0.11 and 0.09; with PDO UME008 (setting [9]) it was 0.43 and 0.44 and 0.47 and 0.36 and 0.39.
